Source: patent US20160274087A1, “SCREENING ASSAY FOR AGENTS THAT INFLUENCE BETA CELL NUMBER AND/OR PHENOTYPE” (VRIJE UNIVERSITEIT BRUSSEL, priority 2013, published 2016)

How the values were obtained:
rat beta cells [1] = assay: Beta cell DNA synthesis/proliferation by EdU (and BrdU) incorporation, incl. LOPAC screen; assay type: cell-based; conditions: for effect on 6MP induced DNA-synthesis and increase in cell numbers: JSH-23 10 μM, Bay11-7085 5 μM
Procedure: (§1) On day 1, 9 and 15 of culture, total numbers of living beta cells per well were determined by semi-automatic cell count, after Hoechst 33342 (Ho) and propidium iodide (PI) staining. Numbers of living beta cells were obtained by subtracting the PI-positive cell numbers from the Ho-positive cell numbers, and correcting for the percent insulin-negative cells, as determined following insulin-immunofluorescence staining. They were expressed as percent of the numbers on day 1. Each condition was also evaluated for increases in the percentage of proliferating beta cells (incorporating the thymidine-analogue 5-ethynyl-2′-deoxyuridine, EdU; 100 μmol/l). To detect beta cells that underwent two successive cycles, cells were sequentially exposed to two different thymidine-analogs, first EdU from day 3 to 6, and then BrdU (100 μmol/l) from day 7 to 10, with a 24-hour label-free period in between. EdU-positive (EdU^+) nuclei were detected with the Click-iT Assay kit (Invitrogen), while BrdU-positive (BrdU^+) nuclei were identified with anti-BrdU antibody.
Freshly purified beta cells were cultured in control medium for 24 h prior to the addition of the LOPAC test compounds (day 1). The culture medium was refreshed on day 3 and the cells were then cultured further with 5-ethynyl-2′-deoxyuridine (EdU; 10 μM) up to day 6. Cell viability and percentage EdU incorporation were quantified after imaging and image analysis using the BD Pathway Bioimager, as described before (Assefa et al., 2014). To test the significance of compound effect on beta cell proliferation, average Z-score for each compound was calculated and a cut-off for potential positive hits was set at a Z-score of greater than three standard deviations. Thus, a compound is considered a hit only if it increases the percent EdU incorporation to above three standard deviation of the plate-averaged percent EdU incorporation.
(§2) Sorted beta cells were seeded in 384-well or 6-well plates coated with 804G matrix, and kept in culture for up to 15 days at 37° C. 5% CO2 using Ham F10 supplemented with 1 mM L-glutamine, 0.1 mg/ml streptomycin, 0.075 mg/ml penicillin, 50 μM of isobutyl-1-methylxanthine (IBMX) at 10 mM D-glucose with and without synthetic GCs (6 methyl-prednisolone (6MP), dexamethasone (DEX), GR-modulators (compound A (CPA), mifepristone (MIF), and NFκB inhibitors (JSH-23 en Bay11-7085). Total cell number and beta cell viability was evaluated after incubation with Hoechst 33342 and propidium iodide. All chemicals were from Sigma Life Sciences or Merck. Quantification of cell numbers and analysis of beta-cell viability was done using the Pathway Bioimager (BD Biosciences) and using IPlab and Attovision software for background subtraction as described prior (Assefa et al., 2014). Replicating beta cells were quantified after 24 or 72 hrs incubation with 5-ethynyl-2′-deoxyuridine (EdU, a thymidine analog) using the ClickIT EDU Alexa Fluor assay (Invitrogen). EdU-positive cells were expressed as percentage of total cell number.

rat beta cells [2] = assay: Number of living beta cells in culture (Hoechst 33342/propidium iodide whole-well imaging counts; expansion assay); assay type: cell-based; conditions: for Number of Living Cells on Day 15 (% of Day 1): control 101 ± 7; for concentration giving maximal inhibition / prevention of DEX-stimulated increase of beta cell numbers: with 0.01 μM DEX, d1 to d15
Procedure: Beta cells were FACS-purified from islet-cell enriched suspensions (Pipeleers et al., 1985) prepared from neonatal (2-3 days-old) and adolescent or adult (8 or 40-week-old, male) Wistar rats (Janvier Bioservices, France); their purity was, respectively 70-75% and over 90%. Sorted cells were counted in a hemocytometer, seeded (day 0) and cultured for up to 15 days in serum-free Ham's-F10 medium at 5, 10 or 20 mmol/l glucose, supplemented with 2 mmol/l L-glutamine, 50 μM 3-isobutyl-1-methylxanthine, 0.5% Albumax-I, penicillin (100 U/ml) and streptomycin (0.1 mg/ml). The 10 mmol/l glucose condition is known to maintain beta cell survival over 9-days (Ling et al., 1994; Ling and Pipeleers, 1994). Medium and cells were retrieved after selected culture periods and assayed for insulin content; data were expressed as a function of the number of living beta cells that was determined in parallel wells.
as §1
Absolute number of cells was determined by whole-well imaging using the BD-PathwayBioimager855 (BD-Biosciences). IPLab and AttoVision software packages (BD-Biosciences) were used for image background subtraction, segmentation and quantification.
Experimental procedures for isolation of beta cells from neonatal (2-3 days old) and adult (8 or 40 week old, male) Wistar rats (Janvier Bioservices, France) and analysis of their number, viability and proliferation activity in culture have been described before (Assefa et al., 2014). Sorted beta cells were seeded in 804G matrix-coated plates (designated as day 0) and the numbers and viability of seeded cells at the start of all experiments were determined on day 1 (24 h after seeding). The cells were cultured in control medium, which is a serum-free Ham's F10 medium supplemented with 2 mM L-glutamine, 50 μM 3-isobutyl-1-methylxanthine, 0.5% Albumax I, penicillin (100 U/ml), streptomycin (0.1 mg/ml) and, unless indicated otherwise, 10 mM glucose.
as §2, with “2014).” for “2014). Replicating beta cells were quantified after 24 or 72 hrs incubation with 5-ethynyl-2′-deoxyuridine (EdU, a thymidine analog) using the ClickIT EDU Alexa Fluor assay (Invitrogen). EdU-positive cells were expressed as percentage of total cell number.”

[3] = test system: GR trans-repression and trans-activation targets, cell cycle genes and beta cell phenotype markers; assay: Q-PCR of mRNA levels in cultured beta cells; assay type: cell-based, rat; conditions: for effect on ICAM1 mRNA levels: NFkB-inhibitors, relative to vehicle control
[4] = 9 days culture, 1 μM 6MP, 1 μM MIF, 0.5 μM CPA, vehicle = 1.0
[5] = control medium + compound 1 μM, 15 days

COC(=O)C1=C(C)NC(C)=C([N+](=O)[O-])C1c1ccccc1C(F)(F)F (racemic) [(±)-Bay K 8644]
hit status in LOPAC screen based on Z-scores (rat beta cells [1]; 1 μM, adult rat beta cells): potential inducers of beta cell proliferation

C[C@]12CCC(=O)C=C1CC[C@@H]1[C@@H]2[C@@H](O)C[C@]2(C=O)[C@@H](C(=O)CO)CC[C@@H]12 [Aldosterone, aldosterone]
Number of Living Cells on Day 15 (% of Day 1) (rat beta cells [2]; control medium + compound 0.1 μM, 15 days): 112 ± 5 % of Day 1

CC(C)(C)c1ccc(S(=O)(=O)/C=C/C#N)cc1 [Bay11-7085]
effect on ICAM1 mRNA levels [3]: suppressing
effect on 6MP induced DNA-synthesis and increase in cell numbers (rat beta cells [1]): does not inhibit

CNCC(Cl)c1ccc(OC(C)=O)cc1.Cl (stereo not drawn) [CPA]
CDK4 mRNA level (ΔΔCt values relative to basal vehicle control) [3, 4]: 1.1 ± 0.2
CXCL11 mRNA level (ΔΔCt values relative to basal vehicle control) [3, 4]: 1.1 ± 0.3
Cyclin B1 mRNA level (ΔΔCt values relative to basal vehicle control) [3, 4]: 0.8 ± 0.4
Cyclin B2 mRNA level (ΔΔCt values relative to basal vehicle control) [3, 4]: 0.5 ± 0.1^2
Cyclin E1 mRNA level (ΔΔCt values relative to basal vehicle control) [3, 4]: 1.0 ± 0.1
CyclinD1 mRNA level (ΔΔCt values relative to basal vehicle control) [3, 4]: 0.7 ± 0.1^1
DLK1 mRNA level (ΔΔCt values relative to basal vehicle control) [3, 4]: 1.4 ± 0.4
FKBP4 mRNA level (ΔΔCt values relative to basal vehicle control) [3, 4]: 0.9 ± 0.2
FKBP5 mRNA level (ΔΔCt values relative to basal vehicle control) [3, 4]: 1.3 ± 0.1
GDF11 mRNA level (ΔΔCt values relative to basal vehicle control) [3, 4]: 0.7 ± 0.1
ICAM1 mRNA level (ΔΔCt values relative to basal vehicle control) [3, 4]: 0.3 ± 0.1^3
MKP1 mRNA level (ΔΔCt values relative to basal vehicle control) [3, 4]: 2.7 ± 1.1
MafA mRNA level (ΔΔCt values relative to basal vehicle control) [3, 4]: 0.4 ± 0.1^3
MafB mRNA level (ΔΔCt values relative to basal vehicle control) [3, 4]: 1.4 ± 0.5
NNAT mRNA level (ΔΔCt values relative to basal vehicle control) [3, 4]: 0.6 ± 0.1
NPY mRNA level (ΔΔCt values relative to basal vehicle control) [3, 4]: 1.1 ± 0.3
NR3C1 mRNA level (ΔΔCt values relative to basal vehicle control) [3, 4]: 1.0 ± 0.1
Pdx1 mRNA level (ΔΔCt values relative to basal vehicle control) [3, 4]: 0.8 ± 0.1
TRH mRNA level (ΔΔCt values relative to basal vehicle control) [3, 4]: 1.2 ± 0.6
change of beta cell numbers between day 1 and 15 (rat beta cells [2]; 6MP 1 μM, DEX 0.01 μM, CPA 0.5 μM): no change of beta cell numbers
concentration giving maximal inhibition / prevention of DEX-stimulated increase of beta cell numbers (rat beta cells [2]): 0.5 µM

Cc1ccc(NCCCc2ccccc2)c(N)c1 [JSH-23]
effect on ICAM1 mRNA levels [3]: suppressing
effect on 6MP induced DNA-synthesis and increase in cell numbers (rat beta cells [1]): does not inhibit

CC#C[C@]1(O)CC[C@H]2[C@@H]3CCC4=CC(=O)CCC4=C3[C@@H](c3ccc(N(C)C)cc3)C[C@@]21C [MIF, mifepristone]
CDK4 mRNA level (ΔΔCt values relative to basal vehicle control) [3, 4]: 1.3 ± 0.2
CXCL11 mRNA level (ΔΔCt values relative to basal vehicle control) [3, 4]: 1.5 ± 0.6
Cyclin B1 mRNA level (ΔΔCt values relative to basal vehicle control) [3, 4]: 1.0 ± 0.3
Cyclin B2 mRNA level (ΔΔCt values relative to basal vehicle control) [3, 4]: 0.6 ± 0.1^1
CyclinD1 mRNA level (ΔΔCt values relative to basal vehicle control) [3, 4]: 1.0 ± 0.1
DLK1 mRNA level (ΔΔCt values relative to basal vehicle control) [3, 4]: 0.9 ± 0.2
FKBP4 mRNA level (ΔΔCt values relative to basal vehicle control) [3, 4]: 0.7 ± 0.2
FKBP5 mRNA level (ΔΔCt values relative to basal vehicle control) [3, 4]: 0.7 ± 0.2
MKP1 mRNA level (ΔΔCt values relative to basal vehicle control) [3, 4]: 1.3 ± 0.0
MafA mRNA level (ΔΔCt values relative to basal vehicle control) [3, 4]: 1.1 ± 0.3
MafB mRNA level (ΔΔCt values relative to basal vehicle control) [3, 4]: 0.6 ± 0.2
NPY mRNA level (ΔΔCt values relative to basal vehicle control) [3, 4]: 0.8 ± 0.0
NR3C1 mRNA level (ΔΔCt values relative to basal vehicle control) [3, 4]: 1.1 ± 0.1
Pdx1 mRNA level (ΔΔCt values relative to basal vehicle control) [3, 4]: 1.1 ± 0.3
effect on 6MP/DEX-stimulated increase of cell numbers (rat beta cells [2]; MIF 1 μM): inhibited
Number of Living Cells on Day 15 (% of Day 1) (rat beta cells [2]; [5]): 104 ± 5 % of Day 1
concentration giving maximal inhibition / prevention of DEX-stimulated increase of beta cell numbers (rat beta cells [2]): 0.1 µM

CC(=O)S[C@@H]1CC2=CC(=O)CC[C@]2(C)[C@H]2CC[C@@]3(C)[C@@H](CC[C@@]34CCC(=O)O4)[C@H]12 [Spironolactone, spironolactone]
Number of Living Cells on Day 15 (% of Day 1) (rat beta cells [2]; [5]): 105 ± 5 % of Day 1

O=C(CO)[C@@H](O)[C@@H](O)[C@H](O)[C@H](O)CO [mannoheptulose]
baseline and GC-induced proliferation of beta cells (rat beta cells [1]; competitive inhibition of GK, data not shown): reduces

B1: GDF11: secretory factor added to beta cell culture (10 nM) (protein, UniProt O95390 299-407, looked up)
Growth/differentiation factor …: NLGLDCDEHSSESRCCRYPLTVDFEAFGWDWIIAPKRYKANYCSGQCEYMFMQKYPHTHLVQQANPRGSAGPCCTPTKMSPINMLYFNDKQQIIYGKIPGMVVDRCGCS
effect on cell numbers in combination with 6MP (rat beta cells [2]; 15 days, 6MP 1 μM, GDF11 10 nM, TRH 5 nM): suppressed proliferation
effect on cell numbers under basal conditions (rat beta cells [2]; 15 days, DLK1 0.5 μM, GDF11 10 nM, TRH 5 nM): modest increase of cell numbers
